What all share (type): cell-based
The subject of assay [1] is Alicyclobacillus acidoterrestris. Nature of the assay: Minimal Inhibitory Concentration (MIC) assay, broth dilution in BAM, turbidity scored visually. To be noted: for Growth in BAM at pH 4.0 at 45° C.: turbidity after 72 hours. The method, then: The basic assay was performed by serially diluting the inhibitors using a two-fold dilution series in a nutrient broth. The dilutions provided inhibitor concentrations in the range of 0.025 ppm to 100 ppm. The nutrient broth used was the American Type Culture Collection Bacillus Agar Medium (BAM) (at pH 4.0 and at 45° C.) for the Alicyclobacillus acidoterrestris. All dilution series were inoculated with approximately 10,000 bacteria per 5 ml. broth tube of freshly cultured (using the same medium) cells per 5 ml. of test assay broth. In each assay, an inoculated sample of the broth without any inhibitor addition was used as a control. Growth was evaluated by visually assessing and scoring the development of turbidity in the broth after 72 hours. The results of the studies are summarized in Table 1 which gives the data from testing the effectiveness of the tetrahydroisohumulone, hexahydrocolupulone and colupulone in inhibiting Alicyclobacillus acidoterrestris. […] Hexahydrocolupulone inhibited the Alicyclobacillus acidoterrestris test strain at or above 50 ppm. Colupulone inhibited the Alicyclobacillus acidoterrestris test strain at or above 50 ppm.

The test system of assay [2] is Alicyclobacillus. Kind of assay: Inhibition of Alicyclobacillus in a solid or liquid medium (general statement).
Assay [3] relates to Alicyclobacillus acidocaldarius. Kind of assay: Minimal Inhibitory Concentration (MIC) assay, broth dilution in TSB, turbidity scored visually. Particulars: for Growth in TSB at pH 7.0: turbidity after 48 hours; for Concentration inhibiting the Alicyclobacillus acidocaldarius test strain (MIC): TSB, pH 7.0, 48 hours. The method, then:
The basic assay was performed by serially diluting the inhibitors using a two-fold dilution series in a nutrient broth. The dilutions provided inhibitor concentrations in the range of 0.025 ppm to 100 ppm. The nutrient broth used was trypticase soy broth (TSB) (at pH 7.0) for the Alicyclobacillus acidocaldarius. All dilution series were inoculated with approximately 10,000 bacteria per 5 ml. of broth using freshly cultured (using the same medium) cells per 5 ml. of test assay broth. In each assay, an inoculated sample of the broth without any inhibitor addition was used as a control. Growth was evaluated by visually assessing and scoring the development of turbidity in the broth after 48 hours. The results of the studies are summarized in Table 2 which gives the data from testing the effectiveness of the tetrahydroisohumulone and hexahydrocolupulone in inhibiting Alicyclobacillus acidocaldarius. […] Hexahydrocolupulone inhibited the Alicyclobacillus acidocaldarius test strain at or above 0.05 ppm.

With `CC(C)=CCC1=C(O)C(C(=O)C(C)C)=C(O)C(CC=C(C)C)(CC=C(C)C)C1=O` [Colupulone, colupulone], the “Growth in BAM at pH 4.0 at 45° C.” value in assay [1] (0.025 ppm), in assay [1] (0.05 ppm), in assay [1] (0.1 ppm), in assay [1] (0.2 ppm), in assay [1] (0.4 ppm) and in assay [1] (0.8 ppm) was “++++ growth” each time. Further, the “Growth in BAM at pH 4.0 at 45° C.” value in assay [1] (1.6 ppm) is on record as “++++ growth”; in assay [1] (3.125 ppm), “++++ growth”; in assay [1] (6.25 ppm), “++++ growth”; in assay [1] (12.5 ppm) it was “++++ growth”; in assay [1] (25 ppm), “++++ growth”; in assay [1] (50 pm), “No growth”. Also, in assay [1] (100 ppm), the “Growth in BAM at pH 4.0 at 45° C.” value is reported as “No growth”.
In the case of `CC(C)CCC1=C(O)C(C(=O)C(C)C)=C(O)C(CCC(C)C)(CCC(C)C)C1=O` [Hexahydrocolupulone, hexahydrocolupulone], the “Concentration effective in inhibiting Alicyclobacillus” value in assay [2] is reported as at least 0.05 ppm. In addition, the “Growth in TSB at pH 7.0” value in assay [3] (0.025 ppm) was “++ growth”; in assay [3] (0.05 ppm) it was “No growth”; in assay [3] (0.1 ppm) it was “No growth”; in assay [3] (0.2 ppm), “No growth”; in assay [3] (0.4 ppm), “No growth”; in assay [3] (0.8 ppm), “No growth”. The “Growth in TSB at pH 7.0” value in assay [3] (1.6 ppm), in assay [3] (3.125 ppm), in assay [3] (6.25 ppm), in assay [3] (12.5 ppm), in assay [3] (25 ppm) and in assay [3] (50 ppm) was “No growth” throughout. Also, in assay [3] (100 ppm), the “Growth in TSB at pH 7.0” value is reported as “No growth”. The “Concentration inhibiting the Alicyclobacillus acidocaldarius test strain (MIC)” value in assay [3] is at least 0.05 ppm. In addition, the “Growth in BAM at pH 4.0 at 45° C.” value in assay [1] (0.025 ppm), in assay [1] (0.05 ppm), in assay [1] (0.1 ppm), in assay [1] (0.2 ppm), in assay [1] (0.4 ppm) and in assay [1] (0.8 ppm) was “++++ growth” in each case. Moreover, the “Growth in BAM at pH 4.0 at 45° C.” value in assay [1] (1.6 ppm) was “++++ growth”; in assay [1] (3.125 ppm), “++++ growth”; in assay [1] (6.25 ppm) it was “++++ growth”; in assay [1] (12.5 ppm) it was “++++ growth”; in assay [1] (25 ppm) it was “++++ growth”; in assay [1] (50 pm), “No growth”. In addition, in assay [1] (100 ppm), the “Growth in BAM at pH 4.0 at 45° C.” value was “No growth”.
Turning to `CC(C)CCC(=O)C1(O)C(O)=C(C(=O)CC(C)C)C(=O)C1CCC(C)C` (stereo not shown) [Tetrahydroisohumulone, tetrahydroisohumulone], the “Concentration effective in inhibiting Alicyclobacillus” value in assay [2] is on record as at least 3 ppm. The “Growth in TSB at pH 7.0” value in assay [3] (0.025 ppm), in assay [3] (0.05 ppm), in assay [3] (0.1 ppm), in assay [3] (0.2 ppm), in assay [3] (0.4 ppm) and in assay [3] (0.8 ppm) was “++++ growth” throughout. The “Growth in TSB at pH 7.0” value in assay [3] (1.6 ppm) is listed as “++++ growth”; in assay [3] (3.125 ppm) it was “No growth”; in assay [3] (6.25 ppm), “No growth”; in assay [3] (12.5 ppm), “No growth”; in assay [3] (25 ppm) it was “No growth”; in assay [3] (50 ppm), “No growth”. The “Growth in TSB at pH 7.0” value in assay [3] (100 ppm) was “No growth”. Besides, the “Concentration inhibiting the Alicyclobacillus acidocaldarius test strain (MIC)” value in assay [3] is recorded as at least 3.125 ppm. Moreover, the “Growth in BAM at pH 4.0 at 45° C.” value in assay [1] (0.025 ppm), in assay [1] (0.05 ppm), in assay [1] (0.1 ppm), in assay [1] (0.2 ppm), in assay [1] (0.4 ppm) and in assay [1] (0.8 ppm) was “++++ growth” in each case. The “Growth in BAM at pH 4.0 at 45° C.” value in assay [1] (1.6 ppm) is on record as “++++ growth”; in assay [1] (3.125 ppm), “++++ growth”; in assay [1] (6.25 ppm), “++++ growth”; in assay [1] (12.5 ppm), “++++ growth”; in assay [1] (25 ppm) it was “No growth”; in assay [1] (50 pm), “No growth”. Further, the “Growth in BAM at pH 4.0 at 45° C.” value in assay [1] (100 ppm) is recorded as “No growth”. Besides, the “Concentration inhibiting the Alicyclobacillus acidoterrestris test strain (MIC)” value in assay [1] (BAM, pH 4.0, 45° C., 72 hours) is at least 25 ppm.

Values taken from patent US8273386B2, “Use of hop acids in fruit juices, fruit juice concentrates and other beverages to inhibit Alicyclobacillus bacteria” (MillerCoors LLC, priority 2004, dated 2012).
